Source: US9907846B2 (priority 2013, dated 2018)
Several values for one entry are separate records, joined by “and”; a condition that tells them apart may be missing. Identical values can stand only once.

How the values were obtained:
[1] = system: PC-3 prostate cancer cells; assay: cells; type: cell-based, human
Protocol: The samples were 5-fold serially diluted in 6 steps starting from the concentration of 100 μg/ml, and incubated with PC-3 prostate cancer cells for 3 days. Then the cells were stained and read by the FMCA method.
Then the cells were stained and the cancer cell killing effect was read by the FMCA method.

HL-60 AML cells = assay: FMCA cancer cell killing on HL-60 AML cells; type: cell-based, human; conditions: 3 days, selected concentrations
Protocol: The FMCA method is based on measurement of fluorescence generated from hydrolysis of fluorescein diacetate (FDA) to fluorescein by cells with intact plasma membranes. After above mentioned incubation for 3 days, the medium was removed by aspiration. After one wash with PBS, 100 μl/well of FDA dissolved in a physiological buffer (10 μg/ml) was added. The plates were incubated for 45 minutes and the generated fluorescence from each well was measured in a 96-well scanning fluorometer. The fluorescence is proportional to the number of intact cells in the well. Quality criteria for a successful analysis included a fluorescence signal in the control wells of more than five times of the mean blank value, a mean co-efficient of variation (CV) in the control wells of less than 30%.
The nanoparticles G3 and G3-DT formulated as described in Ex 1 and 2 were compared with the active component QHC form for the cancer cell killing effect. The samples were 5-fold serial diluted in 6 steps starting from 100 μg/ml, and incubated for 3 days with HL-60 AML cells. Then the cells were stained and read by the FMCA method.
HL-60 AML cells were exposed for 3 days at pre-determined concentrations of G3 and cytarabine separately and in combination of these two as shown on FIG. 7. Then the cells were stained and read for cancer cell killing effect by the FMCA method. […]

[2] = Detection of vitamin D3 in the water phase (DiaSorin Liaison); type: physicochemical
Protocol: Samples with cholecalciferol (vitamin D3) incorporated in G3 particles were analysed at a University Hospital Laboratory on a Liaison automatic instrument. Although the assay (DiaSorin Liaison) is designed to measure 25-HO-D3 it has about one percent cross-reactivity with non-hydroxylated vitamin D3.
First, 50% cholesterol and 50% vitamin D3 were used to form the lipid membrane. Quil A was added into the water phase to generate the G3 particles (for details, please refer to Example 1). 100% Cholesterol and 100% Vitamin D3 in water were used as the controls. Samples with vitamin D3 incorporated in G3 particles were analysed at the Uppsala University Hospital Laboratory on a DiaSorin Liaison automatic instrument.

[3] = Water solubility of drugs incorporated into G3 particles; conditions: drug alone or incorporated into G3 particles

Protocol for U937 cells: The read out was the particle formulation i.e. the extraction of the membrane into the quillaja micell, the anticancer cell killing effect tested on U937 cancer cells and the stimulation of IL-8 of the same cells (see Materials and Methods).
The Alamar Blue assay was used essentially according recommendations from the supplier (Serotec Ltd, Oxford, UK). Briefly, the cells were adjusted to 1×10^5 cells/ml in cell culture medium and 200 μl/well cells in 96-well plates (Nunc, Roskilde, Denmark). Then various QS formulations or medium alone (as control) was added in triplicates and incubated 3 days at 37° C. in humidified atmosphere containing 5% CO2. Alamar Blue was added to a final concentration of 10% to the wells after specified time points. The cell metabolic activity was subsequently measured up to 8 hrs.
Free form of QA is used as positive control. The cell metabolism activity is analyzed by Alamar Blue at 570 and 600 nm.

N[C@H]1C(O)O[C@H](CO)[C@H](O)[C@@H]1O (stereo partly drawn) [Galactosamine]
EC50 (U937 cells): 0.367 µg/mL and 0.389 µg/mL and 0.214 µg/mL

CO[C@H]1C(=O)[C@]2(C)[C@@H](OC)C[C@H]3OC[C@@]3(OC(C)=O)[C@H]2[C@H](OC(=O)c2ccccc2)[C@]2(O)C[C@H](OC(=O)[C@H](O)[C@@H](NC(=O)OC(C)(C)C)c3ccccc3)C(C)=C1C2(C)C [Cabazitaxel, cabazitaxel]
IC50 ([1]; Homo sapiens, 72 h): 25.5 µM

CC(=O)O[C@@]12CO[C@@H]1C[C@H](O)[C@@]1(C)C(=O)[C@H](O)C3=C(C)[C@@H](OC(=O)[C@H](O)[C@@H](NC(=O)OC(C)(C)C)c4ccccc4)C[C@@](O)([C@@H](OC(=O)c4ccccc4)[C@H]21)C3(C)C [docetaxel]
cells killed ([1]; PC-3 cells, 3 days, selected concentrations, FMCA): > 2%

Nc1ccn([C@@H]2O[C@H](CO)[C@@H](O)[C@@H]2O)c(=O)n1 [cytarabine]
cells killed (HL-60 AML cells): < 55%

C=C1CC[C@H](O)C/C1=C/C=C1\CCC[C@]2(C)[C@@H]([C@H](C)CCCC(C)C)CC[C@@H]12 [vitamin D3 control, cholecalciferol]
vitamin D3 detected in the water phase [2]: only trace amount

CS(=O)(=O)OCCCCOS(C)(=O)=O [busulfan]
solubility in water (visual) [3]: clear solutions
